Like-named read-outs stand apart in the source and are kept apart here.
Tests used:
GL261 cells = experiment: Orthotopic GL261 glioma model, survival of mice; format: in vivo, C57BL/6J mice
Method: In this Example, the effects of the combination of a glutamate modulator, BHV-4157, in combination with an immunotherapeutic agent, anti-PD-1, were compared to either alone in a glioma model substantially as decribed in Zeng, J., et al., Int J Radiat Oncol Biol Phys., 2013 Jun. 1; 86(2):343-349, portions of which are reproduced below.
GL261-Luc cells are grown in Dulbecco's Modified Eagle Medium (DMEM)+10% fetal bovineserum+1% penicillinstreptomycin at 37° C. in a humidified incubator maintained at 5% CO2 and 5% O2 (Gibco).
Female C57BL/6J mice (Harlan), 4 to 6 weeks old or 6 to 8 weeks old, are used for orthotopic glioma experiments as described in Sonabend A M, Velicu S, Ulasov IV, et al. A safety and efficacy study of local delivery of interleukin 12 transgene by PPC polymer in a model of experimental glioma. Anticancer Drugs. 2008;19:133-142. To establish syngeneic gliomas, 130,000 GL261-Luc cells are stereotactically injected in a 1 μl volume into the left striatum over 1 minute into the following coordinates: 1 mm anterior, 1 mm lateral from bregma, and 3 mm deep from the cortical surface. Tumor burden is monitored by luciferase imaging on days 7, 21 and 35 after implantation, and the mice are randomly allocated into treatment arms based on tumor radiance, so that the average tumor radiance in each group is roughly equivalent. The animals are euthanized when they show predetermined signs of neurologic deficits (failure to ambulate, weight loss >20% body mass, lethargy, hunched posture). […] Each arm has 6 to 10 mice in survival experiments. All experiments are repeated at least in triplicate.
Hamster antimurine PD-1 monoclonal antibody producing hybridoma G4 are used to produce antibodies as described in Hirano F, Kaneko K, Tamura H, et al. Blockade of B7-H1 and PD-1 by monoclonal antibodies potentiates cancer therapeutic immunity. Cancer Res. 2005;65:1089-1096.
Female C57BL/6J mice, 4 to 6 weeks old, were implanted intrancranially in the left striatum with 130,000 GL261 cells each. The mice were housed and maintained according to the institutional Animal Care and Use Committee protocol in the Johns Hopkins University Animal Facility. The mice were imaged by bioluminescent IVIS® imaging (Perkin Elmer) at day 7, 21, and 35 to assess tumor burden and randomly assigned to groups, 10 mice per arm, as follows: • 1. Control • 2. anti-PD-1 • 3. Trigriluzole 15 mg/kg • 4. Trigriluzole 30 mg/kg • 5. Trigriluzole 45 mg/kg • 6. anti-PD-1+Trigriluzole 15 mg/kg • 7. anti-PD-1+Trigriluzole 30 mg/kg • 8. anti-PD-1+Trigriluzole 45 mg/kg
Day 0 represents the date of intracranial implantation. Control arm 1 received no treatment. Control arm 2 received αPD-1 alone at a dose of 200 μg/animal via intraperitoneal injection on days 10, 12, 14. Control arms 3, 4 and 5 received BHV-4157 alone at doses of 15, 30 and 45 mg/kg (respectively) via intraperitoneal injection daily beginning on day 10. Control arms 6, 7 and 8 received BHV-4157 at doses of 15, 30 and 45 mg/kg (respectively) via intraperitoneal injection daily beginning on day 10 and αPD-1 at a dose of 200 μg/animal via intraperitoneal injection on days 10, 12, 14.
Animals were euthanized according to humane endpoints including central nervous system disturbances, hunched posture, lethargy, weight loss, and inability to ambulate.

advanced melanoma = settings: 3 mg/kg every 3 weeks, cited from earlier work
[1] = test system: advanced (unresectable or metastatic) melanoma; settings: cited from earlier work; for median OS: 3 mg/kg monotherapy group
[2] = test system: advanced (unresectable or metastatic) melanoma; settings: cited from earlier work
PD-1 = biological target: T1, PD-1 (Homo sapiens, UniProt Q15116); settings: 15 subjects, 0.3 mg/kg to 10 mg/kg, across all doses; cited from earlier work
T1 construct: indicate that PD-1 occupancy appears to be dose-independent in this dose range; host or cells: endogenous receptor in dosed subjects

[3] = patients who required re-treatment, ipilimumab monotherapy group
[4] = nivolumab 3 mg/kg every 2 weeks vs dacarbazine

T1 sequence (Q15116 25-288): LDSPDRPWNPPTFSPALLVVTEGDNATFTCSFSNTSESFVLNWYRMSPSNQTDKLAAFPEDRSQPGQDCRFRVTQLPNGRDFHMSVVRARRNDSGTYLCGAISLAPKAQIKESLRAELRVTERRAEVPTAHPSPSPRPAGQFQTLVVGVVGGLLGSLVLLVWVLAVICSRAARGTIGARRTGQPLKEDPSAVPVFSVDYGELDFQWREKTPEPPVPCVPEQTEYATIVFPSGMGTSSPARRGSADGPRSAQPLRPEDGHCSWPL

## CN(CC(=O)Nc1nc2ccc(OC(F)(F)F)cc2s1)C(=O)CNC(=O)CN [BHV-4157, 2-Amino-N-{[methyl({[6-(trifluoromethoxy)-1,3-benzothiazol-2-yl]carbamoyl}methyl)carbamoyl]methyl}acetamide]
GL261 cells; Arm 3: 15 mg/kg i.p. daily from day 10, day 0
  Percent survival of mice after tumor implantation: 100%
GL261 cells; Arm 3: 15 mg/kg i.p. daily from day 10, day 21
  Percent survival of mice after tumor implantation: 90%
GL261 cells; Arm 3: 15 mg/kg i.p. daily from day 10, day 22
  Percent survival of mice after tumor implantation: 80%
GL261 cells; Arm 3: 15 mg/kg i.p. daily from day 10, day 23
  Percent survival of mice after tumor implantation: 70%
GL261 cells; Arm 3: 15 mg/kg i.p. daily from day 10, day 24
  Percent survival of mice after tumor implantation: 50%
GL261 cells; Arm 3: 15 mg/kg i.p. daily from day 10, day 26
  Percent survival of mice after tumor implantation: 30%
GL261 cells; Arm 3: 15 mg/kg i.p. daily from day 10, day 27
  Percent survival of mice after tumor implantation: 20%
GL261 cells; Arm 3: 15 mg/kg i.p. daily from day 10, day 28
  Percent survival of mice after tumor implantation: 10%
GL261 cells; Arm 3: 15 mg/kg i.p. daily from day 10, day 36
  Percent survival of mice after tumor implantation: 0%
GL261 cells; Arm 4: 30 mg/kg i.p. daily from day 10, day 0
  Percent survival of mice after tumor implantation: 100%
GL261 cells; Arm 4: 30 mg/kg i.p. daily from day 10, day 21
  Percent survival of mice after tumor implantation: 90%
GL261 cells; Arm 4: 30 mg/kg i.p. daily from day 10, day 23
  Percent survival of mice after tumor implantation: 70%
GL261 cells; Arm 4: 30 mg/kg i.p. daily from day 10, day 24
  Percent survival of mice after tumor implantation: 50%
GL261 cells; Arm 4: 30 mg/kg i.p. daily from day 10, day 26
  Percent survival of mice after tumor implantation: 30%
GL261 cells; Arm 4: 30 mg/kg i.p. daily from day 10, day 29
  Percent survival of mice after tumor implantation: 20%
GL261 cells; Arm 4: 30 mg/kg i.p. daily from day 10, day 34
  Percent survival of mice after tumor implantation: 10%
GL261 cells; Arm 4: 30 mg/kg i.p. daily from day 10, day 60
  Percent survival of mice after tumor implantation: 10%
GL261 cells; Arm 5: 45 mg/kg i.p. daily from day 10, day 0
  Percent survival of mice after tumor implantation: 100%
GL261 cells; Arm 5: 45 mg/kg i.p. daily from day 10, day 21
  Percent survival of mice after tumor implantation: 90%
GL261 cells; Arm 5: 45 mg/kg i.p. daily from day 10, day 22
  Percent survival of mice after tumor implantation: 80%
GL261 cells; Arm 5: 45 mg/kg i.p. daily from day 10, day 23
  Percent survival of mice after tumor implantation: 70%
GL261 cells; Arm 5: 45 mg/kg i.p. daily from day 10, day 24
  Percent survival of mice after tumor implantation: 60%
GL261 cells; Arm 5: 45 mg/kg i.p. daily from day 10, day 25
  Percent survival of mice after tumor implantation: 50%
GL261 cells; Arm 5: 45 mg/kg i.p. daily from day 10, day 27
  Percent survival of mice after tumor implantation: 20%
GL261 cells; Arm 5: 45 mg/kg i.p. daily from day 10, day 28
  Percent survival of mice after tumor implantation: 10%
GL261 cells; Arm 5: 45 mg/kg i.p. daily from day 10, day 29
  Percent survival of mice after tumor implantation: 0%

## Ipilimumab: fully human IgG1 monoclonal antibody that blocks the binding of CTLA-4 to its B7 ligands
Advanced melanoma
  Best overall response: ORR %: 12%
  Complete response %: 1%
  OS: % of patients with event: (40%)
  OS: Median in months: Not reached
  OS: Number of patients with event: 112
  PFS: % of patients with event: (68%)
  PFS: Median in months: 2.8 months
  PFS: Number of patients with event: 188
  Partial response %: 10%
  Response duration: % ongoing: 88%
Advanced melanoma; patients with confirmed complete or partial response
  Response duration: Median in months: Not reached
[1]; patients with CR or PR
  median OS: not reached
[1]; patients with PD
  median OS: 8 months
[1]; patients with SD
  median OS: 22 months
[1]; 3 mg/kg monotherapy, n = 137
  OS at 1 year % (95% CI): 46% (37.0, 54.1)
  OS at 2 years % (95% CI): 24% (16.0, 31.5)
  Overall survival: Median Months: 10 months
[1]; ipilimumab monotherapy vs gp100
  hazard ratio (HR) for comparison of OS: 0.66
[1]; [3]
  BORR: 38%
  disease control rate (DCR) (CR+PR+SD): 75%

## nivolumab
[2]; 3 mg/kg every 2 weeks, n = 210
  Complete response (CR) (number): 16
  Objective response (number): 84
  Overall survival: Events: 50
  Overall survival: Events, figure in parentheses: (23.8)
  Partial response (PR) (number): 68
  Progression-free survival: Events: 108
  Progression-free survival: Events, figure in parentheses: (51.4)
  Stable disease (SD) (number): 35
[2]; 3 mg/kg every 2 weeks
  Complete response (CR) (%): (7.6%)
  Median duration of response: Not reached
  Median time to response: 2.1 Months
  Objective response (%): (40.0%)
  Overall survival: Median: Not reached
  Overall survival: Rate At 6 months: 84.1
  Overall survival: Rate At 12 months: 72.9
  Partial response (PR) (%): (32.4%)
  Progression-free survival: Median: 5.1
  Progression-free survival: Rate At 6 months: 48.0
  Progression-free survival: Rate At 12 months: 41.8
  Stable disease (SD) (%): (16.7%)
[2]; [4]
  Objective response: Odds ratio: 4.06
  Overall survival: Hazard ratio: 0.42
  Progression-free survival: Hazard ratio: 0.43
PD-1
  mean occupancy rate (PD-1): 85%
  mean plateau occupancy (PD-1): 72%
